Source: ChEMBL document CHEMBL4813934, “Investigation of Selected Flavonoid Derivatives as Potent FLT3 Inhibitors for the Potential Treatment of Acute Myeloid Leukemia” (J Nat Prod, 2021)
Activity calls are given as the source filed them. The calls are words filed in the database; no cut-off is given here.

Experiments:
[1] = target: Receptor-type tyrosine-protein kinase FLT3 (Homo sapiens, UniProt P36888, D835Y); experiment: Inhibition of recombinant His-tagged human FLT3 D835Y mutant (564 to 958 residues) expressed in baculovirus expression system using tyr 02 as substrate incubated for 1 hr by Z'-LYTE assay
[2] = target: Receptor-type tyrosine-protein kinase FLT3 (Homo sapiens, UniProt P36888, ITD); experiment: Inhibition of recombinant N-terminal GST/His6-tagged human FLT3 ITD mutant (571 to 993 residues) expressed in Sf9 insect cells incubated for 1 hr by LanthaScreen assay
MV4-11 [3] = experiment: Cytotoxicity against human MV4-11 cells assessed as reduction in cell viability measured after 72 hrs by MTT assay; type: functional, cell-based; details: MV4-11, 72 h
[4] = target: T1, Receptor-type tyrosine-protein kinase FLT3 (Homo sapiens, UniProt P36888); experiment: Inhibition of recombinant His-tagged human FLT3 (564 to 958 residues) expressed in baculovirus expression system using tyr 02 as substrate incubated for 1 hr by Z'-LYTE assay
T1 sequence (P36888 whole entry): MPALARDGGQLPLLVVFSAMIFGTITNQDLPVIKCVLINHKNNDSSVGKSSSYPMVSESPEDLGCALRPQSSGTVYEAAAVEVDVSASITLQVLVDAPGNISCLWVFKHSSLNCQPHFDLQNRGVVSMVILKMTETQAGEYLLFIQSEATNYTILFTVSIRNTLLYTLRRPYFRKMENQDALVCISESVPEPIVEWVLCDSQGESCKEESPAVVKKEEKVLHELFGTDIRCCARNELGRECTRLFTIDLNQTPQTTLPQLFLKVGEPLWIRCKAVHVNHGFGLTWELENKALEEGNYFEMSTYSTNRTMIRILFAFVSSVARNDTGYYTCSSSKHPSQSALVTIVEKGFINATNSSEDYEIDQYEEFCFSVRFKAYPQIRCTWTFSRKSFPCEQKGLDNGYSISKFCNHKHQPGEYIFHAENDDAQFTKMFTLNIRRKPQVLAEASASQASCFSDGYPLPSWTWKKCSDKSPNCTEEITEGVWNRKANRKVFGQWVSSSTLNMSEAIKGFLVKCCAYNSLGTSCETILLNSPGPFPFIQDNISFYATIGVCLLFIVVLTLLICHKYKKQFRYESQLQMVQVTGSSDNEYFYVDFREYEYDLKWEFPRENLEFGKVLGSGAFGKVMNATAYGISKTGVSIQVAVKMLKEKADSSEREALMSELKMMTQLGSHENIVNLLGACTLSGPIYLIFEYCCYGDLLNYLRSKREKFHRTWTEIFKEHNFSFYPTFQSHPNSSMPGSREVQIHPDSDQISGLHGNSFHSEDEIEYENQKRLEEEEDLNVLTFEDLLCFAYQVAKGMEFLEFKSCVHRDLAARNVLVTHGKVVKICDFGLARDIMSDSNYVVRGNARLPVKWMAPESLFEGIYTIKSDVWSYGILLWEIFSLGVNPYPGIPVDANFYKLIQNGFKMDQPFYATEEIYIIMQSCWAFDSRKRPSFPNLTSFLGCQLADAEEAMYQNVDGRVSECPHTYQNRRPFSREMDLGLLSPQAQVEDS

[5] = target: Receptor-type tyrosine-protein kinase FLT3 (Homo sapiens) (UniProt P36888); experiment: Inhibition of recombinant His-tagged human FLT3 (564 to 958 residues) expressed in baculovirus expression system at 10 uM using tyr 02 as substrate incubated for 1 hr by Z'-LYTE assay relative to control
MOLM-13 [6] = experiment: Cytotoxicity against human MOLM-13 cells assessed as reduction in cell viability measured after 72 hrs by MTT assay; type: functional, cell-based; details: MOLM-13, 72 h
MOLM-13 [7] = experiment: Cell cycle arrest in human MOLM-13 cells assessed as accumulation at G0/G1 phase at 3 uM measured after 72 hrs by propidium iodide/RNaseA staining based flow cytometry analysis (reference value: 53.92 %); type: functional
MOLM-13 [8] = experiment: Cell cycle arrest in human MOLM-13 cells assessed as accumulation at G0/G1 phase at 10 uM measured after 72 hrs by propidium iodide/RNaseA staining based flow cytometry analysis (reference value: 53.92 %); type: functional
MOLM-13 [9] = experiment: Cell cycle arrest in human MOLM-13 cells assessed as accumulation at sub-G1 phase at 0.3 uM measured after 72 hrs by propidium iodide/RNaseA staining based flow cytometry analysis (reference value: 13.76 %); type: functional
MV4-11 [10] = experiment: Cell cycle arrest in human MV4-11 cells assessed as accumulation at sub-G1 phase at 0.3 uM measured after 72 hrs by propidium iodide/RNaseA staining based flow cytometry analysis (reference value: 7.43 %); type: functional
MV4-11 [11] = experiment: Cell cycle arrest in human MV4-11 cells assessed as accumulation at sub-G1 phase at 30 uM measured after 72 hrs by propidium iodide/RNaseA staining based flow cytometry analysis (reference value: 7.43 %); type: functional
MV4-11 [12] = experiment: Cell cycle arrest in human MV4-11 cells assessed as accumulation at S phase at 30 uM measured after 72 hrs by propidium iodide/RNaseA staining based flow cytometry analysis (reference value: 17.51 %); type: functional
MOLM-13 [13] = experiment: Cell cycle arrest in human MOLM-13 cells assessed as accumulation at G2/M phase at 0.3 uM measured after 72 hrs by propidium iodide/RNaseA staining based flow cytometry analysis (reference value: 20.36 %); type: functional
MOLM-13 [14] = experiment: Cell cycle arrest in human MOLM-13 cells assessed as accumulation at G0/G1 phase at 0.3 uM measured after 72 hrs by propidium iodide/RNaseA staining based flow cytometry analysis (reference value: 53.92 %); type: functional
MV4-11 [15] = experiment: Cell cycle arrest in human MV4-11 cells assessed as accumulation at S phase at 3 uM measured after 72 hrs by propidium iodide/RNaseA staining based flow cytometry analysis (reference value: 17.51 %); type: functional
MOLM-13 [16] = experiment: Cell cycle arrest in human MOLM-13 cells assessed as accumulation at S phase at 3 uM measured after 72 hrs by propidium iodide/RNaseA staining based flow cytometry analysis (reference value: 11.14 %); type: functional
MOLM-13 [17] = experiment: Cell cycle arrest in human MOLM-13 cells assessed as accumulation at sub-G1 phase at 3 uM measured after 72 hrs by propidium iodide/RNaseA staining based flow cytometry analysis (reference value: 13.76 %); type: functional
MOLM-13 [18] = experiment: Cell cycle arrest in human MOLM-13 cells assessed as accumulation at G2/M phase at 3 uM measured after 72 hrs by propidium iodide/RNaseA staining based flow cytometry analysis (reference value: 20.36 %); type: functional
MOLM-13 [19] = experiment: Cell cycle arrest in human MOLM-13 cells assessed as accumulation at S phase at 0.3 uM measured after 72 hrs by propidium iodide/RNaseA staining based flow cytometry analysis (reference value: 11.14 %); type: functional
MV4-11 [20] = experiment: Cell cycle arrest in human MV4-11 cells assessed as accumulation at G2/M phase at 0.3 uM measured after 72 hrs by propidium iodide/RNaseA staining based flow cytometry analysis (reference value: 26.26 %); type: functional
MV4-11 [21] = experiment: Cell cycle arrest in human MV4-11 cells assessed as accumulation at S phase at 0.3 uM measured after 72 hrs by propidium iodide/RNaseA staining based flow cytometry analysis (reference value: 17.51 %); type: functional
MV4-11 [22] = experiment: Cell cycle arrest in human MV4-11 cells assessed as accumulation at G0/G1 phase at 10 uM measured after 72 hrs by propidium iodide/RNaseA staining based flow cytometry analysis (reference value: 50.06 %); type: functional
MV4-11 [23] = experiment: Cell cycle arrest in human MV4-11 cells assessed as increase in accumulation at sub-G1 phase at 30 uM measured after 72 hrs by propidium iodide/RNaseA staining based flow cytometry analysis; type: functional
MV4-11 [24] = experiment: Cell cycle arrest in human MV4-11 cells assessed as accumulation at G0/G1 phase at 3 uM measured after 72 hrs by propidium iodide/RNaseA staining based flow cytometry analysis (reference value: 50.06 %); type: functional
MOLM-13 [25] = experiment: Cell cycle arrest in human MOLM-13 cells assessed as accumulation at G0/G1 phase at 0.3 to 3 uM measured after 72 hrs by propidium iodide/RNaseA staining based flow cytometry analysis; type: functional; details: dose 0.3-3 µM
MV4-11 [26] = experiment: Cell cycle arrest in human MV4-11 cells assessed as accumulation at G0/G1 phase at 0.3 uM measured after 72 hrs by propidium iodide/RNaseA staining based flow cytometry analysis (reference value: 50.06 %); type: functional
MV4-11 [27] = experiment: Cell cycle arrest in human MV4-11 cells assessed as accumulation at G2/M phase at 3 uM measured after 72 hrs by propidium iodide/RNaseA staining based flow cytometry analysis (reference value: 26.26 %); type: functional
MV4-11 [28] = experiment: Cell cycle arrest in human MV4-11 cells assessed as accumulation at G2/M phase at 10 uM measured after 72 hrs by propidium iodide/RNaseA staining based flow cytometry analysis (reference value: 26.26 %); type: functional
MOLM-13 [29] = experiment: Cell cycle arrest in human MOLM-13 cells assessed as accumulation at sub-G1 phase at 10 uM measured after 72 hrs by propidium iodide/RNaseA staining based flow cytometry analysis (reference value: 13.76 %); type: functional
MOLM-13 [30] = experiment: Cell cycle arrest in human MOLM-13 cells assessed as accumulation at G2/M phase at 30 uM measured after 72 hrs by propidium iodide/RNaseA staining based flow cytometry analysis (reference value: 20.36 %); type: functional
MV4-11 [31] = experiment: Cell cycle arrest in human MV4-11 cells assessed as accumulation at sub-G1 phase at 10 uM measured after 72 hrs by propidium iodide/RNaseA staining based flow cytometry analysis (reference value: 7.43 %); type: functional
MOLM-13 [32] = experiment: Cell cycle arrest in human MOLM-13 cells assessed as accumulation at S phase at 10 uM measured after 72 hrs by propidium iodide/RNaseA staining based flow cytometry analysis (reference value: 11.14 %); type: functional
MV4-11 [33] = experiment: Cell cycle arrest in human MV4-11 cells assessed as accumulation at G0/G1 phase at 30 uM measured after 72 hrs by propidium iodide/RNaseA staining based flow cytometry analysis (reference value: 50.06 %); type: functional
MOLM-13 [34] = experiment: Cell cycle arrest in human MOLM-13 cells assessed as accumulation at S phase at 30 uM measured after 72 hrs by propidium iodide/RNaseA staining based flow cytometry analysis (reference value: 11.14 %); type: functional
MOLM-13 [35] = experiment: Cell cycle arrest in human MOLM-13 cells assessed as accumulation at G0/G1 phase at 30 uM measured after 72 hrs by propidium iodide/RNaseA staining based flow cytometry analysis (reference value: 53.92 %); type: functional
MV4-11 [36] = experiment: Cell cycle arrest in human MV4-11 cells assessed as accumulation at G2/M phase at 30 uM measured after 72 hrs by propidium iodide/RNaseA staining based flow cytometry analysis (reference value: 26.26 %); type: functional
MV4-11 [37] = experiment: Cell cycle arrest in human MV4-11 cells assessed as accumulation at S phase at 10 uM measured after 72 hrs by propidium iodide/RNaseA staining based flow cytometry analysis (reference value: 17.51 %); type: functional
MOLM-13 [38] = experiment: Cell cycle arrest in human MOLM-13 cells assessed as accumulation at G2/M phase at 10 uM measured after 72 hrs by propidium iodide/RNaseA staining based flow cytometry analysis (reference value: 20.36 %); type: functional
MV4-11 [39] = experiment: Cell cycle arrest in human MV4-11 cells assessed as accumulation at sub-G1 phase at 3 uM measured after 72 hrs by propidium iodide/RNaseA staining based flow cytometry analysis (reference value: 7.43 %); type: functional
MOLM-13 [40] = experiment: Cell cycle arrest in human MOLM-13 cells assessed as accumulation at sub-G1 phase at 30 uM measured after 72 hrs by propidium iodide/RNaseA staining based flow cytometry analysis (reference value: 13.76 %); type: functional

## COc1ccc(-c2cc(=O)c3c(O)c(OC)c(O)cc3o2)cc1 [PECTOLINARIGENIN]
[1]
  IC50: 0.58 µM
[2]
  IC50: 0.88 µM
MV4-11 [3]
  IC50: 7.9 µM
[4]
  IC50: 0.65 µM
[5]
  inhibition: > 80%
MOLM-13 [6]
  IC50: 5.9 µM

## COc1ccc(-c2cc(=O)c3c(O)c(OC)c(OC)cc3o2)cc1 [SALVIGENIN]
MOLM-13 [7]
  Activity: 59.78%
MOLM-13 [8]
  Activity: 42.74%
MOLM-13 [9]
  Activity: 9.93%
MV4-11 [10]
  Activity: 6.78%
MV4-11 [11]
  Activity: 9.4%
MV4-11 [12]
  Activity: 5.91%
MOLM-13 [13]
  Activity: 20.25%
MOLM-13 [14]
  Activity: 59.22%
MV4-11 [15]
  Activity: 8.74%
[1]
  IC50: 0.29 µM
MOLM-13 [16]
  Activity: 5.26%
MOLM-13 [17]
  Activity: 19.21%
[2]
  IC50: 0.58 µM
MOLM-13 [18]
  Activity: 15.19%
MOLM-13 [19]
  Activity: 10.48%
MV4-11 [20]
  Activity: 25.07%
MV4-11 [21]
  Activity: 20.59%
MV4-11 [22]
  Activity: 69.17%
MV4-11 [23]
  Activity: Active
MV4-11 [24]
  Activity: 70.55%
MOLM-13 [25]
  Activity: Active
MV4-11 [26]
  Activity: 50.11%
MV4-11 [27]
  Activity: 14.37%
MV4-11 [28]
  Activity: 10.19%
MOLM-13 [29]
  Activity: 40.89%
MOLM-13 [30]
  Activity: 11.69%
MV4-11 [3]
  IC50: 2.6 µM
MV4-11 [31]
  Activity: 14.62%
[4]
  IC50: 0.55 µM
MOLM-13 [32]
  Activity: 5.4%
[5]
  inhibition: > 80%
MV4-11 [33]
  Activity: 73.88%
MOLM-13 [34]
  Activity: 4.05%
MOLM-13 [35]
  Activity: 40.99%
MV4-11 [36]
  Activity: 11.25%
MV4-11 [37]
  Activity: 6.62%
MOLM-13 [38]
  Activity: 11.15%
MV4-11 [39]
  Activity: 6.83%
MOLM-13 [40]
  Activity: 43.19%
MOLM-13 [6]
  IC50: 2.6 µM
